Test results: patent publication US20040152715A1, “Cycloalkylene amide compounds as NR2B receptor antagonists” (priority 2002, published 2004)

What was measured:
NR2B receptor = target: T1, NR2B receptor (Rattus norvegicus, UniProt P35439+Q00960); experiment: NR2B Binding Assay; conditions: statement in words in Background Art on prior-art compounds; test not named
T1 construct: Membranes were prepared by homogenization of forebrain of male CD rats; from tissue; host or cells: rat forebrain P2 membranes
Description: The activity of the cycloalkylene amide compounds of the present invention, as NR2B antagonists, is determined by their ability to inhibit the binding of NR2B subunit at its receptor sites employing radioactive ligands.
The NR2B antagonist activity of the cycloalkylene amide compounds is evaluated by using the standard assay procedure described in, for example, J. Pharmacol., 331, pp117-126, 1997. This method essentially involves determining the concentration of the individual compound required to reduce the amount of radiolabelled NR2B ligands by 50% at their receptor sites, thereby affording characteristic IC50 values for each compound tested. More specifically, the assay is carried out as follows.
Membranes were prepared by homogenization of forebrain of male CD rats weighing between 170˜190 g by using glass-Teflon homogenizer in 0.32 M sucrose at 4° C. The crude nuclear pellet was removed by centrifugation at 1000×g for 10 min, and the supernatant centrifuged at 17000×g for 25 min. […]
For the saturation assay, receptor saturation was determined by incubating [^3H]-CP-98,113 and 50 μg protein of P2 membrane for 60 minutes at room temperature in a final 100 μl of incubation buffer (50 mM Tris HCl, pH7.4). Total and non-specific bindings (in the presence of 10 μM of unlabeled CP-98,113) were determined in a range of [^3H]-CP-98113 concentrations (0.625 nM to 60 nM). […]
For the competition assay, test compounds were incubated in duplicate with 5 nM [^3H]-CP-98,113 and 50 μg protein of P2 membrane for 60 minutes at room temperature in a final 100 μl of 50 mM Tris HCl buffer (pH7.4). Nonspecific binding was determined by 10 μM of unlabeled CP-98,113 (25 μl). […]
All incubations were terminated by rapid vacuum filtration over 0.2% polyethyleneimine soaked Whatman GF/B glass fibre filter paper using a SKATRON cell harvester followed by three washes with ice-cold filtration buffer (5 mM Tris HCl, pH 7.4.). Receptor-bound radioactivity was quantified by liquid scintillation counting using Packard LS counter. […]

human NR1b/2B receptor = target: T2, human NR1b/2B receptor (Homo sapiens, UniProt Q13224); experiment: Human NR2B Cell Functional Assay; assay type: cell-based; conditions: statement in words in Background Art; test not named
T2 construct: expressed in transfected cells
Description: Human NR2B Cell Functional Assay
HEK293 cells stably expressing human NR1b/2B receptor were used for cell functional assay. Cells were grown in 75-cm^2 culture flasks, using Dulbecco's modified Eagle's medium (DMEM, high glucose) supplemented with 10% fetal bovine, 52 μg/ml Zeocin, 530 μg/ml Geneticin, 100 units/ml penicillin and 100 μg/ml streptomycin. Cells were maintained in a humidified atmosphere in 5% CO2 at 37° C., and 50-60% confluent cells were harvested by 0.05% trypsin containing 0.53 mM EDTA. The day before the experiment, expression of NR1b/2B receptor was induced by 5 μM ponasteron A in DMEM (40 ml) in the presence of 400 μM ketamine to prevent excitotoxicity. […]
Cells were washed with 10 ml of Ca^2+-free Krebs-Ringer Hepes buffer (KRH) containing 400 μM ketamine, and the loading of 5 μM fura-2 acetoxymethyl ester was made for 2 hrs at room temperature in the presence of 400 μM ketamine in Ca^2+-free KRH (10 ml). […] Fura-2 fluorescence (excitation wavelengths: 340 nm and 380 nm; emission wavelengths 510-520 nm) was monitored with a fluorescence imaging system, FDSS6000. The Δ fluorescence ratio F340/F380 (i.e., the fluorescence ratio immediately post-agonist—the basal fluorescence ratio; calculated as AUC) was used for evaluation of drug effects on agonists-induced changes in intracellular Ca^2+. The basal fluorescence ratio was determined in the presence of 10 μM MK-801.

QT prolongation = conditions: statement in words in Background Art; attributed to HERG inhibition

T1 sequence (Q00960 27-1482, other chains not shown): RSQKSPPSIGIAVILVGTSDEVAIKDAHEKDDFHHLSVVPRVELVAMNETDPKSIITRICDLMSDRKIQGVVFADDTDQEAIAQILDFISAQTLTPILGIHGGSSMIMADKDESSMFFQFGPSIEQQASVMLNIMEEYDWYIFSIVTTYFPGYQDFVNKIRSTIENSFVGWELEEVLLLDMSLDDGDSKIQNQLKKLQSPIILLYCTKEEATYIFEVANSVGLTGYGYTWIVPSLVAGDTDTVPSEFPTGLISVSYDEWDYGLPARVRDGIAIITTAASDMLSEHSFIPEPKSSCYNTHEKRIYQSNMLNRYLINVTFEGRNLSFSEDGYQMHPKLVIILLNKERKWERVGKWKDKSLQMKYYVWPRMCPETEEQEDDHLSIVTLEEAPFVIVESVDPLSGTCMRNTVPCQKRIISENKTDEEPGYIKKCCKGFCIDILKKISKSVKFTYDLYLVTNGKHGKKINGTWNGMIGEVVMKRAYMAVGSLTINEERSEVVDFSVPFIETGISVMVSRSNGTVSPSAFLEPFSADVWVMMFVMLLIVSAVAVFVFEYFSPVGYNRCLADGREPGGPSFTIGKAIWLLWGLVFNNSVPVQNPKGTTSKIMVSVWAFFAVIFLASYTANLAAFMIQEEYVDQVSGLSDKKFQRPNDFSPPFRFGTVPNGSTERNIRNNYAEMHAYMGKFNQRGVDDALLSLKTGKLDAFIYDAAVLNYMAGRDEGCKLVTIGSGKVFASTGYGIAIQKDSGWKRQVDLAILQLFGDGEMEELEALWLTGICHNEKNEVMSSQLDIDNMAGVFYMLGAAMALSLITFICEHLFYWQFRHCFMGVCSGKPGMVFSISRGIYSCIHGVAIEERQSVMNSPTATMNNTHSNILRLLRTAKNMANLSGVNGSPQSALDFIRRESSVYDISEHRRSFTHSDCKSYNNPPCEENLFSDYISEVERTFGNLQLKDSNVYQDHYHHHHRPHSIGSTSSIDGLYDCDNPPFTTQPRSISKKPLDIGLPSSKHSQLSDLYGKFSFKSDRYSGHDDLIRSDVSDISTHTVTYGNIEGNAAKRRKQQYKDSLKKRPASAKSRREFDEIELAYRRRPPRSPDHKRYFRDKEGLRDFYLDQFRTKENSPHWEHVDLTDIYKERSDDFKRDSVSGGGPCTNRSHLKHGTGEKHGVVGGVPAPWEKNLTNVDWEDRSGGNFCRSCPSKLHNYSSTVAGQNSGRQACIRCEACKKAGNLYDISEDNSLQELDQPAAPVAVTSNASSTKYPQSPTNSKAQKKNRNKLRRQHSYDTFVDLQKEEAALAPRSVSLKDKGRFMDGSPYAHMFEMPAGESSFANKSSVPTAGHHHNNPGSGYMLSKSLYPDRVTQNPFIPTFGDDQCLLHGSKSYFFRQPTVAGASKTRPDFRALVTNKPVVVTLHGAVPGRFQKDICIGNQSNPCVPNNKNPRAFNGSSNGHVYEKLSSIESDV
T2 sequence (Q13224 27-1484): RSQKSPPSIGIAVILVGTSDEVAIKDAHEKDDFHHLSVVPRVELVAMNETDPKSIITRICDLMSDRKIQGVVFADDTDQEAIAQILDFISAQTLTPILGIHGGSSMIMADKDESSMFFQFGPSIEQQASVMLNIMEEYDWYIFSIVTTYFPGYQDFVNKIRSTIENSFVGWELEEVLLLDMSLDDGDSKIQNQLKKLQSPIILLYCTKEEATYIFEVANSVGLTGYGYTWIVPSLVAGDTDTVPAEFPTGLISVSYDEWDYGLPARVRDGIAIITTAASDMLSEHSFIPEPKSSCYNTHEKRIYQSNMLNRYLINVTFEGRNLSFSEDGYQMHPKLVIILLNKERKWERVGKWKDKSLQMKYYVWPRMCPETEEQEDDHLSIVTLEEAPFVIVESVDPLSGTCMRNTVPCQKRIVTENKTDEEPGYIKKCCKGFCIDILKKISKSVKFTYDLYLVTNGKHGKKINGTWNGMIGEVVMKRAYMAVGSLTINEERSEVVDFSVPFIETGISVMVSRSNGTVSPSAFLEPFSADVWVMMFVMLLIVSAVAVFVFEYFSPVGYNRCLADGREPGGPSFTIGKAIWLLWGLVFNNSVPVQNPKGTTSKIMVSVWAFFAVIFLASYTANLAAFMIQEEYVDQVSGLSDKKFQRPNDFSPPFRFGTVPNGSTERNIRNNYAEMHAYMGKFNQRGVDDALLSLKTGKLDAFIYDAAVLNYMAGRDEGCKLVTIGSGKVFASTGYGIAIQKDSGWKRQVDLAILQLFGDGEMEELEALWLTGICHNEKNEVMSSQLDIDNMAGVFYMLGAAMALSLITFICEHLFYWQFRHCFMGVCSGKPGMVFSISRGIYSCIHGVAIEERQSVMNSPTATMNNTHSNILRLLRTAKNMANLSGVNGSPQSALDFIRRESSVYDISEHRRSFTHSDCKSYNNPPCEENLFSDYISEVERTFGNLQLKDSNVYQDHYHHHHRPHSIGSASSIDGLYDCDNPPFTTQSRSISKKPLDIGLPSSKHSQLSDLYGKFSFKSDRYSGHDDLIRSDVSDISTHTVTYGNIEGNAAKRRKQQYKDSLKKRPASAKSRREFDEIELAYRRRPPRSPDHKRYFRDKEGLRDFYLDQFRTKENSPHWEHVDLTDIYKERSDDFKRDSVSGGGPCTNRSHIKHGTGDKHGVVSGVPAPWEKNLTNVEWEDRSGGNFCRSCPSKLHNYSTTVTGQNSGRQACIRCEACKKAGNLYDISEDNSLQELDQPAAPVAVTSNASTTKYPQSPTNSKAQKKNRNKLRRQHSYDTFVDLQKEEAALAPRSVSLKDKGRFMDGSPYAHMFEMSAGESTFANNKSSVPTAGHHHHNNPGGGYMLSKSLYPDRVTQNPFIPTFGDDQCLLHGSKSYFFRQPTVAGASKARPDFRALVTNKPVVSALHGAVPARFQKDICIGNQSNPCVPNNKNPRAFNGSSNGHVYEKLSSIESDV

Row | Structure (SMILES) | binding affinity (NR2B receptor) (NR2B receptor) | NR2B receptor antagonist activity (human NR1b/2B receptor) | QT prolongation (QT prolongation) | melting point [°C]
1 | O=C(CCc1ccccc1)N[C@H]1CO[C@H](c2ccc(O)cc2)OC1 [B] | insufficient | insufficient | – | –
2 | O=C(CCc1ccccc1)N[C@H]1CC[C@H](c2ccc(O)cc2)CC1 [Compound A] | insufficient | – | – | –
3 | CN(CCCc1ccc(F)cc1)[C@H]1CC[C@H](c2ccc3[nH]c(=O)oc3c2)CC1 [Compound E] | potent | – | shows QT prolongation | –
4 | O=C(CCc1ccc(Cl)cc1Cl)N[C@H]1CC[C@](O)(c2ccc(O)cn2)CC1 [Example 7, 3-(2,4-dichlorophenyl)-N-[cis-4-hydroxy-4-(5-hydroxypyridin-2-yl)cyclohexyl]propanamide] | – | – | – | 198.1
5 | O=C(CCc1ccc(F)cc1)N[C@H]1CC[C@H](c2ccc(O)cn2)CC1 [Example 12, 3-(4-fluorophenyl)-N-[trans-4-(5-hydroxypyridin-2-yl)cyclohexyl]propanamide] | – | – | – | 195.4
